The values that follow come from patent US8093387B2, “Process of making crystalline type II aripiprazole” (Synthon BV, priority 2005, dated 2012).

The conditions of data set [1]: as taught by WO 03/26659 (EP 1330249); cited from earlier work.
A short description of data set [2]: hygroscopicity of solid state forms of aripiprazole. The class given is physicochemical. Conditions: crystalline Type II, not milled.

Molecules are shown by their SMILES. Like-named read-outs stand apart in the source and are kept apart here.

Take `O=C1CCc2ccc(OCCCCN3CCN(c4cccc(Cl)c4Cl)CC3)cc2N1` [Type I aripiprazole, 7-[4-[4-(2,3-dichlorophenyl)-1-piperazinyl]butoxy]-3,4-dihydrocarbostyril]: the hygroscopicity result in data set [1] is given as “significantly hygroscopic”. `O=C1CCc2ccc(OCCCCN3CCN(c4cccc(Cl)c4Cl)CC3)cc2N1` [Type II aripiprazole, 7-[4-[4-(2,3-dichlorophenyl)-1-piperazinyl]butoxy]-3,4-dihydrocarbostyril]: the hygroscopicity result in data set [2] is “not hygroscopic”.
